Experimental data published in ChEMBL document CHEMBL1201862, “PubChem BioAssay data set” (2004).
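Test compounds were applied to cells in 96-well plates for 48 hours at 5 doses. The concentration for 50% growth inhibition is given as GI50.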 The source made the active and inactive calls. Cut-off read from the data, not from the text of the source: active = GI50 up to about 1.1 µM and inactive = higher.

Tests used:
Experiment in all cases: inhibition of tumour cell growth, NCI panel, 48 h
[1] = tested on: MDA-N
[2] = tested on: SNB-75
[3] = tested on: HT-29
[4] = tested on: SF-295
[5] = tested on: SK-MEL-5
[6] = tested on: UACC-62
[7] = tested on: CAKI-1
[8] = tested on: DU-145
[9] = tested on: COLO 205
[10] = tested on: Hs-578T
[11] = tested on: RPMI-8226
[12] = tested on: SF-539
[13] = tested on: HL-60
[14] = tested on: SR
[15] = tested on: NCI-H522
[16] = tested on: NCI-H23
[17] = tested on: SK-MEL-28
[18] = tested on: HCT-15
[19] = tested on: MCF7
[20] = tested on: OVCAR-4
[21] = tested on: Malme-3M
[22] = tested on: MDA-MB-435
[23] = tested on: SK-MEL-2
[24] = tested on: SN12C
[25] = tested on: SNB-19
[26] = tested on: A549
[27] = tested on: OVCAR-8
[28] = tested on: K562
[29] = tested on: MDA-MB-231
[30] = tested on: BT-549
[31] = tested on: HOP-62
[32] = tested on: UO-31
[33] = tested on: HCT-116
[34] = tested on: T47D
[35] = tested on: IGROV-1
[36] = tested on: NCI-H226
[37] = tested on: HOP-92
[38] = tested on: U-251
[39] = tested on: OVCAR-5
[40] = tested on: OVCAR-3
[41] = tested on: SW-620
[42] = tested on: RXF 393
[43] = tested on: TK-10
[44] = tested on: NCI-H460
[45] = tested on: HCC 2998
[46] = tested on: A498
[47] = tested on: CCRF-CEM
[48] = tested on: M14
[49] = tested on: SF-268
[50] = tested on: MOLT-4
[51] = tested on: 786-0
[52] = tested on: PC-3
[53] = tested on: ACHN
[54] = tested on: KM12
[55] = tested on: SK-OV-3
[56] = tested on: NCI/ADR-RES
[57] = tested on: LOX IMVI
[58] = tested on: EKVX
[59] = tested on: UACC-257

For O=C(NNc1ccccc1)c1ccc(Cl)c(Cl)c1, the GI50 [1] was 122 nM (active), the GI50 [2] was 25.8 µM (inactive) and the GI50 [3] was 15.7 µM (inactive). For the same molecule, the GI50 [4] was 67.6 nM (active), the GI50 [5] was 1.3 µM (inactive) and the GI50 [6] was 66.7 nM (active). The GI50 [7] was 0.259 µM (active), the GI50 [8] was 26.9 µM (inactive) and the GI50 [9] was 169 nM (active). The GI50 [10] was 28.5 µM (inactive), the GI50 [11] was 603 nM (active) and the GI50 [12] was 71.8 nM (active). The GI50 [13] was 56.9 nM (active), the GI50 [14] was 20.3 µM (inactive) and the GI50 [15] was 574 nM (active). The GI50 [16] was 34.4 µM (inactive), the GI50 [17] was > 100 µM (inactive) and the GI50 [18] was 15.5 µM. The GI50 [19] was 585 nM (active), the GI50 [20] was 16.2 µM (inactive) and the GI50 [21] was 18.6 µM (inactive). The GI50 [22] was 206 nM (active), the GI50 [23] was 875 nM (active) and the GI50 [24] was 27.9 µM (inactive). The GI50 [25] was 25.8 µM (inactive), the GI50 [26] was 6.59 µM (inactive) and the GI50 [27] was 21.2 µM (inactive). The GI50 [28] was 28.1 nM (active), the GI50 [29] was 35.6 µM (inactive) and the GI50 [30] was 6.81 µM (inactive). For the same molecule, the GI50 [31] was 54.6 µM (inactive), the GI50 [32] was 2.44 µM (inactive) and the GI50 [33] was 14 µM (inactive). The GI50 [34] was 918 nM (active), the GI50 [35] was 13.2 µM (inactive) and the GI50 [36] was 29.9 µM (inactive). For the same molecule, the GI50 [37] was > 78.9 µM (inactive), the GI50 [38] was 18.2 µM (inactive) and the GI50 [39] was 57 µM (inactive). The GI50 [40] was 4.7 µM (inactive), the GI50 [41] was 108 nM (active) and the GI50 [42] was 19.3 µM (inactive). The GI50 [43] was 20.7 µM (inactive), the GI50 [44] was 219 nM (active) and the GI50 [45] was 2.31 µM (inactive). The GI50 [46] was 5.2 µM (inactive), the GI50 [47] was 1.12 µM (inactive) and the GI50 [48] was 324 nM (active). The GI50 [49] was 1.45 µM (inactive), the GI50 [50] was 21.5 µM (inactive) and the GI50 [51] was 41 µM (inactive). For the same molecule, the GI50 [52] was 25.2 µM (inactive), the GI50 [53] was 11.3 µM (inactive) and the GI50 [54] was 114 nM (active). For the same molecule, the GI50 [55] was 21.1 µM (inactive), the GI50 [56] was 5.25 µM (inactive) and the GI50 [57] was 43.8 nM (active). The GI50 [58] was 4.39 µM (inactive).

For O=C(NCCNCCNC(=O)c1cc(-c2ccccc2)nc2ccccc12)c1cc(-c2ccccc2)nc2ccccc12, the GI50 [1] was 1670 nM (inactive), the GI50 [2] was 1.92 µM (inactive) and the GI50 [3] was 1.81 µM (inactive). For the same molecule, the GI50 [4] was 1670 nM (inactive), the GI50 [5] was 1.77 µM (inactive) and the GI50 [6] was 2090 nM (inactive). The GI50 [7] was 9.79 µM (inactive), the GI50 [8] was 2.38 µM (inactive) and the GI50 [9] was 1980 nM (inactive). The GI50 [59] was 1.98 µM (inactive), the GI50 [10] was 2.73 µM (inactive) and the GI50 [11] was 2730 nM (inactive). The GI50 [12] was 2000 nM (inactive), the GI50 [13] was 1870 nM (inactive) and the GI50 [14] was 2.57 µM (inactive). For the same molecule, the GI50 [15] was 1930 nM (inactive), the GI50 [16] was 3.18 µM (inactive) and the GI50 [17] was 1.77 µM (inactive). The GI50 [18] was 2.92 µM, the GI50 [19] was 1780 nM (inactive) and the GI50 [20] was 2 µM (inactive). For the same molecule, the GI50 [21] was 1.92 µM (inactive), the GI50 [22] was 1820 nM (inactive) and the GI50 [23] was 1820 nM (inactive). For the same molecule, the GI50 [24] was 2.37 µM (inactive), the GI50 [25] was 3.21 µM (inactive) and the GI50 [26] was 3.37 µM (inactive). The GI50 [27] was 2.04 µM (inactive), the GI50 [28] was 2160 nM (inactive) and the GI50 [29] was 2.51 µM (inactive). For the same molecule, the GI50 [30] was 7.91 µM (inactive), the GI50 [31] was 1.57 µM (inactive) and the GI50 [32] was 2.64 µM (inactive). The GI50 [33] was 1.7 µM (inactive), the GI50 [34] was 2720 nM (inactive) and the GI50 [35] was 2.52 µM (inactive). The GI50 [36] was 2.91 µM (inactive), the GI50 [37] was 1.82 µM (inactive) and the GI50 [38] was 2.08 µM (inactive). The GI50 [39] was 2.17 µM (inactive), the GI50 [40] was 2.24 µM (inactive) and the GI50 [41] was 1750 nM (inactive). For the same molecule, the GI50 [42] was 1.67 µM (inactive), the GI50 [43] was 2.4 µM (inactive) and the GI50 [44] was 1500 nM (inactive). For the same molecule, the GI50 [45] was 1.73 µM (inactive), the GI50 [46] was 2.7 µM (inactive) and the GI50 [47] was 3.77 µM (inactive). For the same molecule, the GI50 [48] was 1600 nM (inactive), the GI50 [49] was 2.84 µM (inactive) and the GI50 [50] was 2.37 µM (inactive). The GI50 [51] was 1.69 µM (inactive), the GI50 [52] was 2.75 µM (inactive) and the GI50 [53] was 2.14 µM (inactive). For the same molecule, the GI50 [54] was 1910 nM (inactive), the GI50 [55] was 7.46 µM (inactive) and the GI50 [56] was 1.76 µM (inactive). For the same molecule, the GI50 [57] was 1690 nM (inactive) and the GI50 [58] was 4.47 µM (inactive).
